# Source: patent publication US9115139B2, “Pyrazinooxazepine derivatives” (TAKEDA PHARMACEUTICAL COMPANY LIMITED, priority 2009, dated 2015)
# Molecular target: serotonin 5-HT2C receptor (VSV type isoform, stably expressing CHO cell) (Homo sapiens, UniProt P28335, I156V/I160V/N158S)
# Format: cell-based
# Sequence of serotonin 5-HT2C receptor (VSV type isoform, stably expressing CHO cell) (P28335 33-458 I156V/N158S/I160V limits assumed): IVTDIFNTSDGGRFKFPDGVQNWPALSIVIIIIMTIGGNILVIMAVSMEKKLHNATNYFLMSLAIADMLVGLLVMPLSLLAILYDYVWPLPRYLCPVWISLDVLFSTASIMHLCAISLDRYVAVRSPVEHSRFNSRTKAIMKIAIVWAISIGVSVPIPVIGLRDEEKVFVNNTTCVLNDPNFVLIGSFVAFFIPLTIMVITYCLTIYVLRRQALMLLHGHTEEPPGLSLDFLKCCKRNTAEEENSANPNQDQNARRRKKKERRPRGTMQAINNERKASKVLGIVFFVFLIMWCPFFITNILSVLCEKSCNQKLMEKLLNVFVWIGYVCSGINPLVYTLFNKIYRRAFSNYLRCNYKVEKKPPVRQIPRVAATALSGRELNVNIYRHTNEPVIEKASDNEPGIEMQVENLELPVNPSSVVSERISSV
row,Compound,ratio (%) relative to maximum response by 5-HT (1 μM) [%]
1,"CC(C)Oc1cnc2c(n1)OCCNC2.Cl [Example 2, 3-(1-methylethoxy)-6,7,8,9-tetrahydropyrazino[2,3-f][1,4]oxazepine hydrochloride]",93
2,"Cl.c1nc2c(nc1C1CC1)OCCNC2 [Example 10, 3-cyclopropyl-6,7,8,9-tetrahydropyrazino[2,3-f][1,4]oxazepine hydrochloride]",89
3,"CC(C)N(C)c1cnc2c(n1)OCCNC2.Cl [Example 8, N-methyl-N-(1-methylethyl)-6,7,8,9-tetrahydropyrazino[2,3-f][1,4]oxazepin-3-amine hydrochloride]",95
4,"C[C@@H]1COCCN1c1cnc2c(n1)OCCNC2.Cl [Example 5, 3-[(3R)-3-methylmorpholin-4-yl]-6,7,8,9-tetrahydropyrazino[2,3-f][1,4]oxazepine hydrochloride]",95
